# In publication PMC5688144, “Assay interference and off-target liabilities of reported histone acetyltransferase inhibitors” (Nature Communications, 2017):
# Entries after “also recorded” stand apart in the source; their conditions may differ.
# Legend:
# human La antigen = molecular target: T1, human La antigen (Homo sapiens, UniProt P05455, T302N); experiment: ALARM NMR; type: binding; conditions: 400 μM compound
# T1 construct: amino acids 100–324 of the human La antigen (plus T302N mutation); 6xHis (N); 6xHis (C); host or cells: Escherichia coli Rosetta cells
# T1 sequence (P05455 100-324 T302N): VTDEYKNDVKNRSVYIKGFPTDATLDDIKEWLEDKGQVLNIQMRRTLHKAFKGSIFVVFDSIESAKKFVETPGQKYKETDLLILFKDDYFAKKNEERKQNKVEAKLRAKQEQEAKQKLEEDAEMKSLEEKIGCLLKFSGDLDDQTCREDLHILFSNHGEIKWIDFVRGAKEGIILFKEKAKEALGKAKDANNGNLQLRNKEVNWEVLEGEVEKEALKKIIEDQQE
# Excerpt: The gene encoding amino acids 100–324 of the human La antigen (plus T302N mutation) was cloned into pET28b + vector (Novagen) with both an N- and C-terminal 6xHis tag (addgene.org, plasmid ID 90209). The sequence identity of the ALARM NMR plasmid construct was verified by Sanger sequencing of the transgene region and next-generation sequencing of the whole plasmid.
# Plasmid was transformed into Escherichia coli Rosetta cells (Novagen) and cultured in M9 minimal media. The La antigen was labeled by adding ^13C-labeled amino acid precursors ([3-^13C]-α-ketobutyrate and [3,3′-^13C]-α-ketoisovalerate sodium salts; Cambridge Isotope Laboratories; 250 mg L^−1 final concentrations) to culture medium 30 min before induction with IPTG (1 mM final concentration). Bacteria were collected after incubation at 25 °C for 8 h and washed with ice-cold phosphate-buffered saline (PBS). Washed cells were lysed by French press in ice-cold lysis buffer (50 mM Tris, pH 7.6, 300 mM NaCl, 10% glycerol (v/v), 5 mM β-mercaptoethanol (BME), 5 mM imidazole, 2 mM MgCl2, benzonase, and protease inhibitor cocktail), followed by an additional brief sonication step (3 × 15 s pulse sequence) on ice. This lysed solution was centrifuged (30,000×g for 30 min, two cycles) to remove cellular debris, then loaded onto a pre-washed Ni-NTA bead column (Qiagen) kept at 4 °C and washed with buffer (50 mM Tris, pH 7.6, 300 mM NaCl, 10% glycerol (v/v), 5 mM BME, 5 mM imidazole). The La antigen was eluted with an elution buffer (50 mM Tris, pH 7.6, 300 mM NaCl, 10% glycerol (v/v), 5 mM BME, imidazole gradient ranging from 5 mM to 0.5 M). […] Aliquots were flash-frozen in liquid N2 and stored at −80 °C until further use. Before use, aliquots of ~150 μM protein were incubated in the presence of 20 mM DTT at 37 °C for 1 h, then dialyzed (25 mM sodium phosphate buffer, pH 7.0 (no DTT)) in 16 h cycles at 4 °C with constant nitrogen bubbling and with gentle stirring, for three total buffer cycles.
# For standard testing conditions, the [^1H-^13C]-HMQC spectra were acquired in 25 mM sodium phosphate buffer, pH 7.0, 10% D2O (v/v; CIL) ± 400 μM test compounds delivered from the aforementioned stock solutions, and ± 20 mM non-deuterated DTT. Final concentration of DMSO was 4.0% (v/v). Reaction solutions were mixed, then centrifuged for 5 min (1000×g) in non-binding 384-well microplates at RT, then incubated at 37 °C for 1 h and then 30 °C for 15 h before obtaining spectra. Samples were checked for evidence of gross precipitation. Data were recorded at 298 K on a Bruker UltraShield 700 MHz NMR spectrometer equipped with a Bruker 1.7 mm TCI Cryoprobe and Bruker SampleJet autosampler. Samples were tested at 50 μM protein concentrations using 16 scans, 2048 complex points in F2, and 80 points in F1 using standard protein [^1H-^13C]-HMQC and water suppression pulse sequences.
# Data were analyzed in TopSpin™ 3.5 (Bruker). Reactions were normalized to equivalent DMSO controls. Non-reactive compounds were identified by the absence of chemical shifts or changes in peak intensities (^13C-methyl) ± 20 mM DTT.
# AmpC β-lactamase = molecular target: T2, AmpC β-lactamase (Escherichia coli, UniProt P00811); experiment: biochemical; design: species or system E. coli; conditions: 10 μM compound; for AmpC aggregation counter-screen: ± 0.01% Triton X-100
# T2 construct: Recombinant E. coli AmpC (amino acids 20–377); purchased MyBioSource.com
# Description: Selected compounds were assessed for aggregation using a modified AmpC β-lactamase counter-screen[24],[32],[64]. Recombinant E. coli AmpC (amino acids 20–377) was obtained from MyBioSource.com. Testing was performed in ALARM NMR buffer (25 mM sodium phosphate, pH 7.0) in flat-bottom UV-transparent 96-well microplates in 150 μL reaction volumes. Compounds were tested in triplicate at 10 μM final concentrations in either the presence or absence of freshly-prepared 0.01% Triton X-100 (v/v). Final concentration of DMSO was 2.0% (v/v). Compounds were incubated with ~5 nM AmpC in 147 μL reaction buffer for 5 min at RT, followed by the addition of 3 μL of nitrocefin substrate (100 μM final concentration). Reaction solutions were gently mixed by pipetting up and down three times using a multichannel pipette. […] Percent activity was normalized to DMSO-only controls. Fluconazole and lidocaine were included as negative aggregation control compounds. Rottlerin was included as a positive aggregation control compound. Aggregators were defined as compounds with significant detergent-dependent changes in AmpC activity (t-test, adjusted P-value <0.05; mean differences greater than 30%). Activators were defined as compounds that increased AmpC enzymatic activity.
# Absorbance spectra = type: physicochemical; conditions: 25 mM sodium phosphate, pH 7.0
# Description: Selected test compounds were assessed for absorption between 300 and 750 nm. Most compound absorption spectra were obtained at 100, 50, and 10 μM final compound concentrations in ALARM NMR buffer (25 mM sodium phosphate, pH 7.0). Final concentration of DMSO was constant at 2.0% (v/v). Compounds were allowed to incubate at RT in buffer for 10 min in UV-transparent polystyrene 384-well plates. Absorbance spectra were then obtained on a SpectraMax M3 or BMG Labtech CLARIOstar microplate reader at 25 °C. Significant absorbance was defined as molar absorptivity constants greater than 2000 M^−1 cm^−1 at wavelengths greater than 300 nm.
# [1] = Autofluorescence counter-screen; type: physicochemical; conditions: autofluorescence at eight fluorophore settings; 32 nM-100 μM compound
# Description: Selected test compounds were assessed for autofluorescence using an adaption of published procedures. […] Final concentration of DMSO was constant at 1.0% (v/v). Compounds and fluorophore standards were transferred as 10 mM DMSO stock solutions to 384-well black polystyrene microplates via Echo 550 dispenser. The plate arrangement was purposefully designed to minimize optical crosstalk by fluorophore standards. All measurements were performed in ALARM NMR buffer (25 mM sodium phosphate, pH 7.0) at 25 °C. Aliquots of 20 μL buffer were dispensed into microplate wells via ThermoFisher Multidrop dispenser. Compounds were shaken for 1 min on a plate shaker, centrifuged briefly for 1 min at 1000×g, then allowed to incubate at RT in buffer for 10 min before measuring fluorescence intensity on a SpectraMax M3 plate reader under reduced lighting. […] Bandwidth filters were set to default mode. Fluorescence intensity was measured for each test compound using each of the eight fluorophore standard settings. Fluorophores present on each plate were then used to construct normalized fluorescence dose-responses (“fluorophore-equivalent concentrations”, FEC). Fluorescence intensity for each test compound was converted to the appropriate FEC.
# [2] = Fluorescence quenching counter-screen; type: physicochemical; conditions: 10 μM fluorophore; 32 nM-100 μM compound
# Description: Selected test compounds were assessed for fluorescence quenching using adaptions of previously published procedures[9],[24]. Briefly, test compounds and individual fluorophore standards were incubated together. The fluorescence intensity of these mixtures was compared to the fluorescence intensity of the same fluorophore standards minus test compounds. Each microplate contained positive control columns (DMSO plus fixed concentration of a single fluorophore), negative control columns (DMSO), and experimental wells (test compounds plus fixed concentration of a single fluorophore). […] Final concentration of DMSO was constant at 2.0% (v/v). […] All measurements were performed in ALARM NMR buffer (25 mM sodium phosphate, pH 7.0) at 25 °C. Aliquots of 20 μL buffer were dispensed into microplate wells via ThermoFisher Multidrop dispenser. Microplates were shaken for 1 min on a plate shaker, centrifuged briefly for 1 min at 1000×g, then allowed to incubate at RT for 10 min before measuring fluorescence intensity on a SpectraMax M3 plate reader under reduced lighting. Instrument settings for each fluorophore were unchanged from the aforementioned autofluorescence studies.
# p300/CBP = conditions: cited from earlier work
# [3] = tested on: caspase 3/7 activity in HEK293T and MCF7 cells; experiment: Live-cell caspase 3/7 activity; type: cell-based; conditions: 24 h after compound addition
# Description: (§1) For cell growth analyses, cells were seeded in 96-well plates, treated with compounds for the indicated times, and monitored over time in a live cell Incucyte™ ZOOM imager (Essen Biosciences). To label apoptotic and dead cells, caspase 3/7 activatable DEVD recognition motif NucView™ 488 DNA intercalating dye (1:1000 dilution, Essen Biosciences) and SYTOX™ green nucleic acid stain (1:1000 dilution, Invitrogen) were used respectively, following manufacturer instructions.
# HEK293T and MCF7 cells [4] = experiment: Membrane permeability (SYTOX green uptake); type: cell-based; conditions: for membrane permeability: Sytox green dead-cell dye uptake
# Description: as §1
# [5] = tested on: H3K27ac levels in HEK293T and MCF7 cells; experiment: Cellular H3K27ac western blot; type: cell-based; conditions: 10 and 30 μM compound
# Description: (§2) Cells were cultured in DMEM supplemented with 10% fetal bovine serum (Winsent), penicillin (100 U mL^−1), and streptomycin (100 µg mL^−1). Compounds dissolved in DMSO or matching DMSO-only controls were added to cells for indicated times. Compound effects in cells were determined as described[67] and are outlined below.
# For western blot analyses, cells were lysed in lysis buffer (20 mM Tris–HCl, pH 8, 150 mM NaCl, 1 mM EDTA, 10 mM MgCl2, 0.5% Triton X-100 (v/v), 12.5 U mL^−1 benzonase (Sigma), complete EDTA-free protease inhibitor cocktail (Roche)). After 3 min incubation at RT, SDS was added to final 1% concentration (w/v). Total cell lysates were resolved in 4–12% Bis-Tris protein gels (Invitrogen) with MOPS buffer (Invitrogen) and transferred for 1.5 h (80 V) onto PVDF membrane (Millipore) in tris-glycine transfer buffer containing 20% methanol and 0.05% SDS. Blots were blocked for 1 h in blocking buffer (5% milk in 0.1% Tween 20/PBS) and incubated with respective primary antibodies: H3K27ac (1:1000, CST #8173), H3 (1:1000, Abcam #10799), p300 (1:2000, Bethyl #A300-358A), CBP (1:1000, Bethyl #A300-362A), actin (1:3000, Abcam #3280), α-tubulin (1:1000, 12G10 DHSB), and α-tubulin-K40ac (1:2000, Abcam #179484) in blocking buffer overnight at 4 °C. After five washes with 0.1% Tween 20/PBS, the blots were incubated with goat anti-rabbit IgG (IRDye 800-conjugated, LiCor #926-32211) and donkey anti-mouse IgG (IRDye 680-conjugated, LiCor #926-68072) antibodies (1:5000) in Odyssey Blocking Buffer (LiCor) for 1 h at RT and washed with 0.1% Tween 20/PBS. The signal was read on an Odyssey scanner (LiCor) at 800 and 700 nm. Representative uncropped images with molecular weight markers are provided (Supplementary Figs. 9, 12, 13).
# HEK293T and MCF7 cells [6] = experiment: Cell proliferation by cell confluence; type: cell-based; conditions: 10 and 30 μM compound, 24 h
# Description: as §2, §1
smiles,measurement,setting,value
"CCCCCCCCCCCCCCC=C(C(=O)OCC)C(=O)OCC [Compound 19, LoCAM]","ALARM NMR, (-) DTT",human La antigen; 0 mM DTT,Negative
same,"ALARM NMR, (+) DTT",human La antigen; DTT present,Negative
same,ALARM NMR interpretation,human La antigen; with and without DTT,Inert as tested
same,AmpC counter-screen result,AmpC β-lactamase; detergent-sensitive modulation,likely aggregators
same,AmpC aggregation counter-screen,AmpC β-lactamase,"Detergent-sensitive (Aggregators were defined as compounds with significant detergent-dependent changes in AmpC activity (t-test, adjusted P-value <0.05; mean differences greater than 30%))"
same,Absorption max (nm),Absorbance spectra,Nominal
same,Absorbance counter-screen,Absorbance spectra; 300-750 nm,Negative
same,Fluorescence counter-screen,[1],Negative
same,Quenching counter-screen,[2],Negative
same,"% inhibition, p300/CBP","p300/CBP; @ 50 µM, ref 23 (Supplementary References)",74%
"O=C(O)CCSc1cc(NS(=O)(=O)c2ccc(Br)cc2)c2ccccc2c1O [Compound 24, JMC2015-6a]",caspase 3/7 activity,[3],induce; also recorded: increased
same,cytotoxicity by membrane integrity studies,"HEK293T and MCF7 cells [4]; 30 µM compound, MCF7 cells",cytotoxic
same,membrane permeability,HEK293T and MCF7 cells [4],increased
O=C1C(Cl)=C(NCCN2CCOCC2)C(=O)c2ncccc21 [NSC-663284],cellular H3K27ac levels,[5],decreased H3K27ac levels
same,caspase 3/7 activity,[3],induce; also recorded: increased
same,membrane permeability,HEK293T and MCF7 cells [4],increased
CC(=O)c1c(O)c(C)c(O)c(Cc2c(O)c3c(c(C(=O)/C=C/c4ccccc4)c2O)OC(C)(C)C=C3)c1O [Rottlerin],effect on cell proliferation (cell confluence),HEK293T and MCF7 cells [6],cytotoxic effects
same,effect on cell proliferation (cell confluence),HEK293T and MCF7 cells [6]; listed as rottlerin,anti-proliferative effects
same,cellular H3K27ac levels,[5],decreased H3K27ac levels
"c1cc(SSc2ccns2)sn1 [Compound 2, NU-9056]",AmpC aggregation counter-screen,AmpC β-lactamase,Detergent-insensitive
same,IC50,"p300/CBP; original report, 27 (Supplementary References)",59 µM
"O=[N+]([O-])c1cc(Br)c2nsnc2c1Sc1ncnc2[nH]cnc12 [Compound 26, JMC2015-2a]",caspase 3/7 activity,[3],induce; also recorded: increased
same,membrane permeability,HEK293T and MCF7 cells [4],increased
